From patent US10875837B2, “Inhibitors of the fibroblast growth factor receptor” (BLUEPRINT MEDICINES CORPORATION, priority 2013, dated 2020) come the findings set out here.

In one data set the target is T1, wild type FGFR-4 (Homo sapiens, UniProt P22455).
T1 construct: purchased Carna Biosciences, Inc
The data set can be described thus: FGFR-4 wild type assay at Km (Caliper electrophoretic mobility shift). It is filed as biochemical. The settings on record: wild type FGFR-4, 400 uM ATP, 25 C, 90 minutes; read-out: INH-FGFR4. As to the method:
Biochemical Activity Assessment In order to assess the activity of chemical compounds against the relevant kinase of interest, the Caliper LifeSciences electrophoretic mobility shift technology platform is utilized. Fluorescently labeled substrate peptide is incubated in the presence dosed levels of compounds, a set concentration of kinase and of ATP, so that a reflective proportion of the peptide is phosphorylated. At the end of the reaction, the mix of phosphorylated (product) and non-phosphorylated (substrate) peptides are passed through the microfluidic system of the Caliper LabChip® EZ Reader II, under an applied potential difference. The presence of the phosphate group on the product peptide provides a difference in mass and charge between the product peptide and the substrate peptide, resulting in a separation of the substrate and product pools in the sample. As the pools pass the LEDS within the instrument, these pools are detected and resolved as separate peaks. The ratio between these peaks therefore reflects the activity of the chemical matter at that concentration in that well, under those conditions.
FGFR-4 wild type assay at Km: In each well of a 384-well plate, 0.5 ng/ul of wild type FGFR-4 (Carna Biosciences, Inc.) was incubated in a total of 12.5 ul of buffer (100 mM HEPES pH 7.5, 0.015% Brij 35, 10 mM MgCl2, 1 mM DTT) with 1 uM CSKtide (5-FAM-KKKKEEIYFFFG-NH2) and 400 uM ATP at 25 C for 90 minutes in the presence or absence of a dosed concentration series of compound (1% DMSO final concentration). The reaction was stopped by the addition of 70 ul of Stop buffer (100 mM HEPES pH 7.5, 0.015% Brij 35, 35 mM EDTA and 0.2% of Coating Reagent 3 (Caliper Lifesciences)). The plate was then read on a Caliper LabChip® EZ Reader II (protocol settings: −1.9 psi, upstream voltage −700, downstream voltage −3000, post sample sip 35 s).

The subject of data set [1] is pMAPK (Thr202/Tyr204) in MDA-MB453 or DMS 114 cells. The data set can be described thus: Detection of pMAPK (Thr202/Tyr204) using Alpha ELISA (pERK alphaLISA). The class given is cell-based. The settings on record: 1 hr incubation with compound; cell line not given (MDA-MB453 or DMS 114). As to the method:
Detection of pMAPK (Thr202/Tyr204) Using Alpha ELISA
MDA-MB453 or DMS 114 cells were plated in 96-well cell culture plates at a density of 1×10^5 cells or 3×10^4 cells, respectively. Cells were allowed to attach, and growth media was replaced with serum free media. Compounds were added at the indicated concentrations. Following 1 hr incubation in the presence of compound, cells were collected. For the DMS 114 cells, 100 ng/mL FGF2 was added for 10 min prior to cell collection. Cell lysates were prepared and processed according to manufacturer instruction (AlphaScreen® SureFire™ Phospho-ERK 1/2 Kit (Perkin Elmer).
(In general: In an ELISA, binding on a coated surface is turned into a signal by an enzyme label.)

The subject of another data set is Hep3B xenograft tumors. The data set can be described thus: Hep3B liver cancer cell subcutaneous xenograft model in nude mice. The class given is in vivo. As to the method:
The effects of Compound 27 on tumor growth inhibition in Hep3B liver cancer cell subcutaneous xenograft model with different dosages were studied.
Female nude mice (Mus musculus) age 6 to 8 weeks were used. Tumor cell culture and inoculation: Hep3B cells were cultured with EMEM medium (Invitrogen, USA) supplemented with 10% FBS (Gibco, Australia). The cells were harvested in 90% confluence, and the viability was no less than 90%. Mice were implanted subcutaneously (s.c.) with 200 μL of 10×10^6 Hep3B cells in 50% Matrigel in the right flank at the beginning of the study.
Animal grouping and dosing schedule: Ten days after cell implantation, when tumors reached an average volume of 284 mm^3, […] were selected based on tumor volume and randomly assigned to 5 treatment groups (n=9). The day of randomization was denoted as day 0 and the treatment was started from then on.
Tumor volume and body weight measurements: Tumor size was measured twice per week in two dimensions using a caliper, and the volume was expressed in mm^3 using the formula: V=0.5 a× b^2 where a and b were the long and short diameters of the tumor, respectively. Body weight was measured at least twice weekly.

T1 sequence (P22455 22-802): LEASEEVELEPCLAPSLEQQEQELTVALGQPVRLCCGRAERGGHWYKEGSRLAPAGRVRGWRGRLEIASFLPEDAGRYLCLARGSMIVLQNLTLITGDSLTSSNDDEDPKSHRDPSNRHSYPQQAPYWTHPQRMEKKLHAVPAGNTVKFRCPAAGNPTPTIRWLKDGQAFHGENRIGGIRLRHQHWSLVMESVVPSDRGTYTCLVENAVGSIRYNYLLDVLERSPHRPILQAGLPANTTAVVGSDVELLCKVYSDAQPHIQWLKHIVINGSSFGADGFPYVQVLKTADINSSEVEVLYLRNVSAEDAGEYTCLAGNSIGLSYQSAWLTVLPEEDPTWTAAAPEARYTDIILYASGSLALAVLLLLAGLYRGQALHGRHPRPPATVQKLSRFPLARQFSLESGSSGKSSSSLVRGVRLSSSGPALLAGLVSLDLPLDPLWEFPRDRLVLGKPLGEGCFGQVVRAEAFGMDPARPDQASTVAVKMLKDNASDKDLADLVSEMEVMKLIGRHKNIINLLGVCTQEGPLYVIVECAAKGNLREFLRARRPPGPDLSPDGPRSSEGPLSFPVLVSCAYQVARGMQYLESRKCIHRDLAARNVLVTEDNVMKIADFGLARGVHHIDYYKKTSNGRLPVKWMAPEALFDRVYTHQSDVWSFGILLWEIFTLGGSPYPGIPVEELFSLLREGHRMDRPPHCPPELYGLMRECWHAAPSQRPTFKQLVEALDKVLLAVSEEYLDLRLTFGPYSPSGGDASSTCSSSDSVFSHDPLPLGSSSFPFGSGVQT

As to `C=CC(=O)N[C@H]1COC[C@H]1Nc1ncc2cc(-c3c(Cl)c(OC)cc(OC)c3Cl)ccc2n1` [Compound 27, N-[(3R,4S)-4-{[6-(2,6-dichloro-3,5-dimethoxyphenyl)quinazolin-2-yl]amino}oxolan-3-yl]prop-2-enamide], the IC50 (on wild type FGFR-4; in data set [1]) was below 0.01 µM throughout. Also, the tumor response entry with Hep3B xenograft tumors (100 mg/kg PO BID, Hep3B xenograft, nude mice) is “regressed and almost disappeared”. In addition, the “tumor volume compared with vehicle group” value with Hep3B xenograft tumors (30 and 100 mg/kg PO BID, Hep3B xenograft, nude mice) is “Statistically significant reduction of tumor volumes”. Moreover, the body weight change result in the data set with Hep3B xenograft tumors (Hep3B-bearing nude mice, only the 100 mg/kg PO BID group did not lose bodyweight) was “could alleviate body weight loss”. The “tumor volume compared with vehicle group during the entire study” value in the data set on Hep3B xenograft tumors (all treated groups, 10 mg/kg to 100 mg/kg, Hep3B xenograft, nude mice) was “significant reduction of tumor volume”. Further, the tolerability entry with Hep3B xenograft tumors (current dosages and dosing schedule (10 to 100 mg/kg PO BID), nude mice) was “well tolerated”. Also, in the data set on Hep3B xenograft tumors (increasing dosage from 10 mg/kg to 100 mg/kg), the “dose dependence of tumor inhibition efficiency” value is “enhanced the tumor inhibition efficiency”.

`C=CC(=O)N[C@H]1CN(S(=O)(=O)CC)C[C@H]1Nc1ncc2cc(-c3c(Cl)c(OC)cc(OC)c3Cl)ccc2n1` [Compound 89]: the IC50 was below 0.01 µM on wild type FGFR-4 and 0.01 to 0.1 µM in data set [1].

For `C=CC(=O)N[C@H]1CN(C(=O)CN2CCCC2)C[C@H]1Nc1ncc2cc(-c3c(Cl)c(OC)cc(OC)c3Cl)ccc2n1` [Compound 91], the IC50 was below 0.01 µM on wild type FGFR-4 and 0.01 to 0.1 µM in data set [1].
